From ChEMBL document CHEMBL1201862, “PubChem BioAssay data set” (2004)
Activity calls are given as the source filed them. Rule as the data show it, for most assays here: active = IC50 of 10 µM or less and inactive = more.

What was measured:
Assay type in all cases: functional
[1] = molecular target: T1, DNA dC->dU-editing enzyme APOBEC-3G (Homo sapiens, UniProt Q9HC16); test: SAR analysis of small molecule inhibitors of APOBEC3G DNA Deaminase via a fluorescence-based single-stranded DNA deaminase assay - Set 2.; conditions: read-out: IC50_Mean
T1 sequence (Q9HC16 whole entry): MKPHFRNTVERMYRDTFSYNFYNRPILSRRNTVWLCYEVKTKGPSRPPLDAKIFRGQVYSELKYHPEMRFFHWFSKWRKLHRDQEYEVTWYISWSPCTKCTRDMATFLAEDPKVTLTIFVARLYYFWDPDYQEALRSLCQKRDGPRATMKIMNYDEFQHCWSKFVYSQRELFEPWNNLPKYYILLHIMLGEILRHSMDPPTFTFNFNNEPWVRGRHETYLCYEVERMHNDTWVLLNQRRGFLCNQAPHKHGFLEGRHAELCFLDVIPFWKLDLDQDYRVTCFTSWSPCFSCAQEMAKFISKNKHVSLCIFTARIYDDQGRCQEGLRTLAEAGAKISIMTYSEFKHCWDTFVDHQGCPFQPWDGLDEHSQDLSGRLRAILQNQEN

[2] = molecular target: T2, DNA dC->dU-editing enzyme APOBEC-3A (Homo sapiens, UniProt P31941); test: SAR analysis of small molecule inhibitors of APOBEC3A DNA Deaminase via a fluorescence-based single-stranded DNA deaminase assay.; conditions: read-out: IC50_Mean
T2 sequence (P31941 whole entry): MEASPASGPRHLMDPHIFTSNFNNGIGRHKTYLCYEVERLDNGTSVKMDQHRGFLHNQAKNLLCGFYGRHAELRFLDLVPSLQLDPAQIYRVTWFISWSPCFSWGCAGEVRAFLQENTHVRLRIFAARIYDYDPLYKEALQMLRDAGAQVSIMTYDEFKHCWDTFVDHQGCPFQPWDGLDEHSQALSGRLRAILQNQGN

[3] = molecular target: T1, DNA dC->dU-editing enzyme APOBEC-3G; test: inhibition of APOBEC3G ssDNA deamination – biochemical, fluorescence, single-stranded DNA substrate, SAR follow-up (AID 602136); conditions: read-out: IC50_Mean
[4] = molecular target: T2, DNA dC->dU-editing enzyme APOBEC-3A; test: SAR analysis of small molecule inhibitors of APOBEC3A DNA Deaminase via a fluorescence-based single-stranded DNA deaminase assay - Set 2.; conditions: read-out: IC50_Mean
[5] = molecular target: Melanin-concentrating hormone receptor 1 (Homo sapiens, UniProt Q99705); test: Late-stage fluorescence-based counterscreen for antagonists of the G-protein coupled receptor 7 (GPR7): cell-based dose response assay to identify antagonists of the melanin-concentrating hormone receptor 1 (MCHR1) Set 6.
Melanin-concentrating hormone receptor 1, sequence (Q99705 whole entry): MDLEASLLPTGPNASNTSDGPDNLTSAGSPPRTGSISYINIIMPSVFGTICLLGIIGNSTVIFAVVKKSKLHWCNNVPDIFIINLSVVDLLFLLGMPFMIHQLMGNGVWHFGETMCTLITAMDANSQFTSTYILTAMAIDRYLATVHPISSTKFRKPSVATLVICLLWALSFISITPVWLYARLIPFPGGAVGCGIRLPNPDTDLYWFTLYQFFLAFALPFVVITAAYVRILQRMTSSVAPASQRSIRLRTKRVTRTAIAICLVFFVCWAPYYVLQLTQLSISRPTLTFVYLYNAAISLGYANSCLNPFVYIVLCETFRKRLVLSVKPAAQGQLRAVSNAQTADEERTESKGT

[6] = molecular target: Neuropeptides B/W receptor type 1 (Homo sapiens, UniProt P48145); test: human NPBW1 receptor blockade, IC50 – cell-based, fluorescence, dose response, set 6, late-stage follow-up (AID 588583)
Neuropeptides B/W receptor type 1, sequence (P48145 whole entry): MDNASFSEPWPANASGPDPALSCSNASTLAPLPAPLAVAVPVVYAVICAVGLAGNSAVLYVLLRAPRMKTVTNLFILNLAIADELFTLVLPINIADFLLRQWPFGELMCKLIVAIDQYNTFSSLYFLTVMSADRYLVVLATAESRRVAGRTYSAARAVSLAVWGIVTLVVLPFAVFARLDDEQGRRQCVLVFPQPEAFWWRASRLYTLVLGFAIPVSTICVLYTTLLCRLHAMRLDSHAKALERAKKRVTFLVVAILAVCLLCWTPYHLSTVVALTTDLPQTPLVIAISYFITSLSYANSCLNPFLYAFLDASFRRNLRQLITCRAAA

SMILES | IC50 [1] | IC50 [2] | IC50 [3] | IC50 [4] | IC50 [5] | IC50 [6]
O=C(NCc1ccc2c(c1)OCO2)c1nn2cccnc2c1Cl | 49.9 µM (inactive) | > 99 µM (inactive) | > 99 µM (inactive) | > 99 µM (inactive) | – | –
N#CC(c1ccccc1F)c1c(Cl)cnn(Cc2cccc3ccccc23)c1=O (stereo unspecified) | – | – | – | – | 0.937 µM (active) | 0.937 µM (active)
